Assay results as given in US20040102364A1, “Backbone cyclized radiolabelled somatostatin analogs” (priority 2001, published 2004).

Columns and labels:
human SST-R1 = molecular target: T1, human SST-R1 (Homo sapiens, UniProt P30872); test: Inhibition of 125I-Tyr11-SRIF binding to cloned human SST-R1 membranes; conditions: human cloned receptor; read-out: Concentration (nM) of SST analogs to inhibit SRIF binding by 50%, SST-R 1
T1 construct: expressed in transfected cells; host or cells: CHO cells
Description: (§1) The SST analogs were tested for their potency in inhibition of the binding of ^125I-Tyr^11-SRIF (based on the method described by Raynor et. al., Molecular Pharmacology 43: 838, 1993) to membrane preparations expressing the transmembranal SST receptors (SST-R1, 2, 3, 4 or 5). The receptor preparations used for these tests were either from the cloned human receptors selectively and stably expressed in Chinese Hamster Ovary (CHO) cells or from cell lines naturally expressing the SST-Rs. […] The binding reactions were filtered, the filters were washed and the bound radioactivity was counted in β counter after addition of scintillation solution.

human cloned SST-R2 = molecular target: T2, human cloned SST-R2 (Homo sapiens, UniProt P30874); test: Inhibition of 125I-Tyr11-SRIF binding to cloned human SST-R2 membranes (CHO cells); conditions: human cloned receptor; read-out: Concentration (nM) of SST analogs to inhibit SRIF binding by 50%, SST-R 2
T2 construct: expressed in transfected cells; host or cells: CHO cells
Description: as §1

human SST-R3 = molecular target: T3, human SST-R3 (Homo sapiens, UniProt P32745); test: Inhibition of 125I-Tyr11-SRIF binding to cloned human SST-R3 membranes; conditions: human cloned receptor; read-out: Concentration (nM) of SST analogs to inhibit SRIF binding by 50%, SST-R 3
T3 construct: expressed in transfected cells; host or cells: CHO cells
Description: as §1

human SST-R4 = molecular target: T4, human SST-R4 (Homo sapiens, UniProt P31391); test: Inhibition of 125I-Tyr11-SRIF binding to cloned human SST-R4 membranes; conditions: human cloned receptor; read-out: Concentration (nM) of SST analogs to inhibit SRIF binding by 50%, SST-R 4
T4 construct: expressed in transfected cells; host or cells: CHO cells
Description: as §1

human SST-R5 = molecular target: T5, human SST-R5 (Homo sapiens, UniProt P35346); test: Inhibition of 125I-Tyr11-SRIF binding to cloned human SST-R5 membranes; conditions: human cloned receptor; read-out: Concentration (nM) of SST analogs to inhibit SRIF binding by 50%, SST-R 5
T5 construct: expressed in transfected cells; host or cells: CHO cells
Description: as §1

T4 sequence (P31391 whole entry): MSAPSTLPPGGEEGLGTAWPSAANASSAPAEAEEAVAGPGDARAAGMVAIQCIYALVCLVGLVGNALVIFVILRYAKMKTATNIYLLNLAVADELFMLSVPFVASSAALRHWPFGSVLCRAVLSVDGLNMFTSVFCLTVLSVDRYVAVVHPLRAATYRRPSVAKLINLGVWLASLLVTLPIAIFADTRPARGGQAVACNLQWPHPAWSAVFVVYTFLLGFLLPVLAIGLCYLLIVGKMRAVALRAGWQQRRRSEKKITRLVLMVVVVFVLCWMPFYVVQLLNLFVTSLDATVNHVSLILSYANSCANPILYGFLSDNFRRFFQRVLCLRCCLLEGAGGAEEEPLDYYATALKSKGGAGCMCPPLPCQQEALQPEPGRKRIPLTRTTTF
T2 sequence (P30874 whole entry): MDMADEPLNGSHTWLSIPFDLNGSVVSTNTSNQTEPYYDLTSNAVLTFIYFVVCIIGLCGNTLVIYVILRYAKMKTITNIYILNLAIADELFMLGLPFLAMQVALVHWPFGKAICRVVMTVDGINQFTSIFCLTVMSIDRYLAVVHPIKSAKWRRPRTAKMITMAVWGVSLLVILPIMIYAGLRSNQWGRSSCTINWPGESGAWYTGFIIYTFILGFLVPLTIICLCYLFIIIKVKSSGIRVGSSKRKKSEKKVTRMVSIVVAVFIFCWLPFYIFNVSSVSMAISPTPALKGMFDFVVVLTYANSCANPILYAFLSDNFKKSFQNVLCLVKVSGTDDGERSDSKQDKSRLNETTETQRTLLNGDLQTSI
T5 sequence (P35346 whole entry): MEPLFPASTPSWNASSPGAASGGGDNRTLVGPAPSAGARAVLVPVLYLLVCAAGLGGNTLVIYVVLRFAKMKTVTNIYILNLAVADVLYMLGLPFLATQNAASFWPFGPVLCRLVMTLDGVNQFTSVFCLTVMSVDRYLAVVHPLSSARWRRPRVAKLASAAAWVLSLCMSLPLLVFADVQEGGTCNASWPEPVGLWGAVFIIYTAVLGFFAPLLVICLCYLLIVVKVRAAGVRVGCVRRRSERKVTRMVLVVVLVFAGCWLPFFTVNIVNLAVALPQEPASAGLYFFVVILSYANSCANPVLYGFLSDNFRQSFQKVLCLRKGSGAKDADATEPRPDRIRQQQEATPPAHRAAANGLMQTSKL
T3 sequence (P32745 whole entry): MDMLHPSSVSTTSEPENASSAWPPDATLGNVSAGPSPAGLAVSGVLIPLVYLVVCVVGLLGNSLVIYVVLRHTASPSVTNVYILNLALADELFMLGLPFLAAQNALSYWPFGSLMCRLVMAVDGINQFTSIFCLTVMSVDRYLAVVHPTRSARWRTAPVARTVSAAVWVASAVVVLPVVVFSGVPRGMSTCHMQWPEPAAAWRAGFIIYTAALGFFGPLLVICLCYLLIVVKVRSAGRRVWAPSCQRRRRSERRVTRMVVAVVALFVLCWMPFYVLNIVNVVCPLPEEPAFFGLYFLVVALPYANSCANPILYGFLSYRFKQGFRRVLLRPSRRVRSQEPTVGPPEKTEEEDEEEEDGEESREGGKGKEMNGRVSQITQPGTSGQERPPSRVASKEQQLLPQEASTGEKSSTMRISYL
T1 sequence (P30872 whole entry): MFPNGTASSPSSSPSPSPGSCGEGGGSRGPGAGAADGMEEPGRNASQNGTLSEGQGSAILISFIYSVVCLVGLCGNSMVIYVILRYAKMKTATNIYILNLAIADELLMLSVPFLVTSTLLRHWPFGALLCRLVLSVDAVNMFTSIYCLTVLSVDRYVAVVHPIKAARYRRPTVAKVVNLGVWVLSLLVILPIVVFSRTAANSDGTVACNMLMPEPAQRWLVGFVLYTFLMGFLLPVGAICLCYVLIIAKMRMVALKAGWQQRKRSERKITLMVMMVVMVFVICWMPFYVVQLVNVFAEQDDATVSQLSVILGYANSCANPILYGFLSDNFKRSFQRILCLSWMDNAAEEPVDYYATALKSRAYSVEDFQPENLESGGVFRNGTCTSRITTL

C[C@@H](O)[C@@H]1NC(=O)[C@H](CCCCN)NC(=O)[C@@H](Cc2c[nH]c3ccccc23)NC(=O)[C@H](Cc2ccccc2)NC(=O)[C@@H]2CSSC[C@H](NC1=O)C(=O)N([C@@H](Cc1ccccc1)C(N)=O)CCCNC(=O)CCCN[C@@H](Cc1ccccc1)C(=O)N2 [PTR 3205, PheC3-Cys-Phe-(D)Trp-Lys-Thr-Cys-PheN3-NH2]
IC50 (human SST-R1): 349 nM
IC50 (human cloned SST-R2): 1.5 nM
IC50 (human SST-R3): 323 nM
IC50 (human SST-R4): 123 nM
IC50 (human SST-R5): 186 nM
